Data: paper doi:10.1101/2021.11.01.466777v1 (bioRxiv, 2021)
Starred links: 1 amine or outer side, 2 acyl side, 3 side chain; linkers in the order of their positions; H or OH if unused. Positions of bridges follow the written chain, without caps; N, C: chain ends. Non-standard residues stand in square brackets, D forms with d. Residues, ends and D or L forms follow the SMILES beside them. *: point of attachment. dAsp(3R-OH) = N[C@@H](C(=O)O)[C@@H](O)C(=O)O; X1 = NC[C@H](O)[C@@H](N[*:1])C(=O)[*:2]; X2 = CCC(C)(O)[C@H](N[*:1])C(=O)[*:2]; d(aIle) = CC[C@H](C)[C@@H](N)C(=O)O; d(aThr) = C[C@@H](O)[C@@H](N)C(=O)O; Myristoyl = CCCCCCCCCCCCCC(=O)*; dOrn = NCCC[C@@H](N)C(=O)O; hSer = N[C@@H](CCO)C(=O)O

Key:
[1] = Pharmacokinetics after IV slow bolus in uninfected mice; type: in vivo, mouse (female BALB/c); settings: 5 mg/kg IV; for Plasma concentration, Mean: mean of n = 3
[2] = test system: neutropenic female BALB/c mice; assay: Toxicity and Maximum Tolerated Dose; type: in vivo, mouse
[3] = human volunteers; no reference given; cited from earlier work

With `CCCCCCCCCCCCCC(=O)N[C@H](CCCN)C(=O)N[C@@H](CO)C(=O)N[C@H](C(=O)N[C@@H](C(=O)N[C@@H](C(=O)N[C@H]1C(=O)NCC(=O)N[C@@H](C(C)(O)CC)C(=O)N[C@H]([C@@H](C)CC)C(=O)N[C@@H](CCO)C(=O)N[C@@H](C)C(=O)N[C@H]([C@@H](C)CC)C(=O)N[C@@H](CCC(=O)O)C(=O)O[C@@H]1C)[C@@H](O)CN)[C@@H](O)C(=O)O)C(C)C` (stereo partly drawn) [turnercyclamycin A] (Myristoyl-[dOrn]SV[dAsp(3R-OH)][X1][d(aThr)]G[X2][d(aIle)][hSer]A[d(aIle)]E; ester 6-C) the “Plasma concentration, Mean” value ([1]; 0.05 h) was 53333 ng/mL, the “Sample concentration in plasma” value ([1]; 0.05 h, sample 1, LC-MS/MS) was 52235 ng/mL and the “Sample concentration in plasma” value ([1]; 0.05 h, sample 2, LC-MS/MS) was 51887 ng/mL. For the same compound, the “Sample concentration in plasma” value ([1]; 0.05 h, sample 3, LC-MS/MS) was 55877 ng/mL, the “Plasma concentration, Mean” value ([1]; 0.167 h) was 38646 ng/mL and the “Sample concentration in plasma” value ([1]; 0.167 h, sample 1, LC-MS/MS) was 36107 ng/mL. The “Sample concentration in plasma” value ([1]; 0.167 h, sample 2, LC-MS/MS) was 38906 ng/mL, the “Sample concentration in plasma” value ([1]; 0.167 h, sample 3, LC-MS/MS) was 40924 ng/mL and the “Plasma concentration, Mean” value ([1]; 1 h) was 29269 ng/mL. For the same compound, the “Sample concentration in plasma” value ([1]; 1 h, sample 1, LC-MS/MS) was 24635 ng/mL, the “Sample concentration in plasma” value ([1]; 1 h, sample 3, LC-MS/MS) was 29337 ng/mL and the “Plasma concentration, Mean” value ([1]; 2 h) was 26200 ng/mL. The “Sample concentration in plasma” value ([1]; 2 h, sample 1, LC-MS/MS) was 26373 ng/mL, the “Sample concentration in plasma” value ([1]; 2 h, sample 2, LC-MS/MS) was 25446 ng/mL and the “Sample concentration in plasma” value ([1]; 2 h, sample 3, LC-MS/MS) was 26782 ng/mL. For the same compound, the “Plasma concentration, Mean” value ([1]; 4 h) was 22542 ng/mL, the “Sample concentration in plasma” value ([1]; 4 h, sample 1, LC-MS/MS) was 22923 ng/mL and the “Sample concentration in plasma” value ([1]; 4 h, sample 2, LC-MS/MS) was 22209 ng/mL. For the same compound, the “Sample concentration in plasma” value ([1]; 4 h, sample 3, LC-MS/MS) was 22495 ng/mL, the “Plasma concentration, Mean” value ([1]; 8 h) was 11971 ng/mL and the “Sample concentration in plasma” value ([1]; 8 h, sample 1, LC-MS/MS) was 11661 ng/mL. For the same compound, the “Sample concentration in plasma” value ([1]; 8 h, sample 2, LC-MS/MS) was 13130 ng/mL, the “Sample concentration in plasma” value ([1]; 8 h, sample 3, LC-MS/MS) was 11123 ng/mL and the “Plasma concentration, Mean” value ([1]; 24 h) was 931 ng/mL. For the same compound, the “Sample concentration in plasma” value ([1]; 24 h, sample 1, LC-MS/MS) was 974 ng/mL, the “Sample concentration in plasma” value ([1]; 24 h, sample 2, LC-MS/MS) was 764 ng/mL and the “Sample concentration in plasma” value ([1]; 24 h, sample 3, LC-MS/MS) was 1054 ng/mL. For the same compound, the CL ([1]; mouse plasma, NCA) was 0.29 mL/min/kg, the “Sample concentration in plasma” value ([1]; time printed 0 h, sample 1, LC-MS/MS) was 34373 ng/mL and the “Sample concentration in plasma” value ([1]; time printed 0 h, sample 2, LC-MS/MS) was 31954 ng/mL. The “Sample concentration in plasma” value ([1]; time printed 0 h, sample 3, LC-MS/MS) was 34645 ng/mL, the body weight change ([2]; 25 mg/kg (printed mg/mL) IV BID q12h, 24 hours after first treatment) was “no body weight drop was observed” and the mortality ([2]; 25 mg/kg (printed mg/mL) IV BID q12h, n = 3) was “did not induce mortality in any mice”. For the same compound, the “Body Weight” value ([2]; 25 mg/kg IV bid (q12h) x1, mouse No. 7, Day 0 (first)) was 17 g, the “Body Weight” value ([2]; 25 mg/kg IV bid (q12h) x1, mouse No. 7, Day 1) was 17 g and the “Body Weight” value ([2]; 25 mg/kg IV bid (q12h) x1, mouse No. 8, Day 0 (first)) was 17 g. The “Body Weight” value ([2]; 25 mg/kg IV bid (q12h) x1, mouse No. 8, Day 1) was 17 g, the body weight change ([2]; 50 mg/kg (printed mg/mL) IV BID q12h, 24 hours post-treatment) was “slight body weight losses were observed” and the mortality ([2]; 50 mg/kg (printed mg/mL) IV BID q12h, n = 3) was “did not induce mortality in any mice”. The “Body Weight” value ([2]; 50 mg/kg IV bid (q12h) x1, mouse No. 4, Day 0 (first)) was 16 g, the “Body Weight” value ([2]; 50 mg/kg IV bid (q12h) x1, mouse No. 4, Day 0 (second)) was 15 g and the “Body Weight” value ([2]; 50 mg/kg IV bid (q12h) x1, mouse No. 4, Day 1) was 15 g. The “Body Weight” value ([2]; 50 mg/kg IV bid (q12h) x1, mouse No. 5, Day 0 (first)) was 15 g, the “Body Weight” value ([2]; 50 mg/kg IV bid (q12h) x1, mouse No. 5, Day 1) was 14 g and the “Body Weight” value ([2]; 50 mg/kg IV bid (q12h) x1, mouse No. 6, Day 0 (first)) was 16 g. For the same compound, the “Body Weight” value ([2]; 50 mg/kg IV bid (q12h) x1, mouse No. 6, Day 0 (second)) was 16 g, the “Body Weight” value ([2]; 50 mg/kg IV bid (q12h) x1, mouse No. 6, Day 1) was 16 g and the mortality ([2]; 100 mg/kg IV) was “fatal in the first mouse”. The well tolerated dose ([2]; mice, IV BID q12h) was “up to 25 mg/kg” and the “Maximum Tolerated Dose (MTD)” value ([2]; neutropenic female BALB/c mice, IV BID q12h, n = 3 per dose) was 25 mg/kg.

In the case of daptomycin, the volume of distribution [3] is given as 0.1 L/kg.
